In PubChem BioAssay (NCI):
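96-well plates; 48 h exposure; 5 concentrations. Endpoints by linear interpolation between flanking doses. Not reached: highest tested concentration assigned. GI50: concentration for 50% inhibition of growth. Definition used: TGI = concentration required for complete inhibition of growth.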

Columns and labels:
Assay in all cases: NCI anticancer screen, dose series, 48 h
NCI-H460 lung = test system: NCI-H460 lung
OVCAR-8 ovarian = test system: OVCAR-8 ovarian
HOP-92 NSCLC = test system: HOP-92 NSCLC
OVCAR-3 ovarian = test system: OVCAR-3 ovarian
SNB-75 CNS = test system: SNB-75 CNS
UACC-257 melanoma = test system: UACC-257 melanoma
SK-MEL-28 melanoma = test system: SK-MEL-28 melanoma
NCI-H522 lung = test system: NCI-H522 lung

| Structure (SMILES) | GI50 (NCI-H460 lung) | TGI (NCI-H460 lung) | GI50 (OVCAR-8 ovarian) | TGI (OVCAR-8 ovarian) | GI50 (HOP-92 NSCLC) | TGI (HOP-92 NSCLC) | GI50 (OVCAR-3 ovarian) | TGI (OVCAR-3 ovarian) | GI50 (SNB-75 CNS) | TGI (SNB-75 CNS) | GI50 (UACC-257 melanoma) | TGI (UACC-257 melanoma) | GI50 (SK-MEL-28 melanoma) | TGI (SK-MEL-28 melanoma) | GI50 (NCI-H522 lung) | TGI (NCI-H522 lung) |
| --- | --- | --- | --- | --- | --- | --- | --- | --- | --- | --- | --- | --- | --- | --- | --- | --- |
| O=C(Nc1ccccc1)Nc1ccccc1CNc1nc(Nc2ccc(OCCN3CCCC3)cc2)ncc1Cl | 1.07 µM | 2.22 µM | 7.62 µM | > 50 µM | 2.82 µM | 10.6 µM | 1.09 µM | 2.36 µM | 1.2 µM | 6.22 µM | 7.22 µM | 18.3 µM | 5.62 µM | 11.9 µM | 5.3 µM | 18.8 µM |
| COc1ccc(S(=O)(=O)NCCNc2nccc(-c3c(-c4ccccc4)nc4sccn34)n2)cc1 | 1.24 µM | > 100 µM | 3.08 µM | > 100 µM | 3.73 µM | 65.7 µM | 3.56 µM | > 100 µM | 1.82 µM | 9.54 µM | 6.47 µM | > 100 µM | 5.79 µM | > 100 µM | 4.64 µM | > 100 µM |
| O=C(CN=Cc1cccs1)CSC(c1ccccc1)c1ccccc1 | 24.8 µM | 70.1 µM | 22.6 µM | 55.5 µM | 20.7 µM | 51.1 µM | 17.6 µM | 48.1 µM | 30.5 µM | > 100 µM | 22.1 µM | 48 µM | 27.7 µM | > 100 µM | – | – |
| O=[N+]([O-])O.[NH-]C1CCCCC1[NH-].[NH-]C1CCCCC1[NH-].[NH-]C1CCCCC1[NH-].[OH-].[OH-].[OH-].[Pt+4].[Pt+4].[Pt+4] (configuration not stated) | 0.241 µM | 7.07 µM | 0.382 µM | > 74.1 µM | 8.21 µM | > 61.2 µM | 2.16 µM | > 68.1 µM | 1.49 µM | 32.6 µM | 1.27 µM | 20.4 µM | 1.43 µM | 43.2 µM | 0.212 µM | 2.98 µM |
| C#Cc1ccc(-n2c(/C=C/c3cc(OC)c(OC)c(OC)c3)nc3ncccc3c2=O)cc1 | 4.11 µM | 25.3 µM | 9.67 µM | > 100 µM | 2.31 µM | 7.72 µM | 2.33 µM | 6.42 µM | 3.88 µM | > 100 µM | 9.74 µM | > 100 µM | 34.6 µM | > 100 µM | 2.33 µM | 6.29 µM |
| O=[N+]([O-])c1cccc(-c2ncc(-c3ccc(Cl)cc3Cl)[nH]2)c1 | 7.26 µM | 30.2 µM | 22.4 µM | 53.3 µM | – | 35.4 µM | 2.44 µM | 5.93 µM | 8 µM | 36.9 µM | 9.7 µM | 29 µM | 1.79 µM | 3.72 µM | 10.3 µM | > 27.2 µM |
| CN1C(=O)C23CC4=CC=CC(O)C4N2C(=O)C1(CO)SS3 (configuration not stated) | – | 0.801 µM | – | 0.154 µM | – | 0.41 µM | – | 0.33 µM | – | 0.382 µM | – | 0.936 µM | – | 2.26 µM | – | 0.338 µM |
| CCSc1nc(N)c2cnn(C)c2n1 | 31.6 µM | > 100 µM | 49.4 µM | > 100 µM | 77.4 µM | > 100 µM | 30.6 µM | > 100 µM | 68.9 µM | > 100 µM | 67.1 µM | > 100 µM | 62.3 µM | > 100 µM | 62.9 µM | > 100 µM |
